Assay results as given in patent US20250204541A1, “GAS PHASE TREATMENT OF PRODUCE” (priority 2022, published 2025).

Tests used:
Assay type in all cases: in vivo
[1] = system: Penicillium digitatum (Pd); assay: Antifungal activity of vapor against Penicillium digitatum in wounded, infected mandarins; details: for effect on Pd mold: airtight container, assessed after 6 days
Protocol: Example 4. The antifungal activity of a range of AITC vapor concentrations was tested against Pd in mandarins. All mandarins were wounded by puncturing with a screw and infected by dispensing 1000 Pd spores suspended in 10 μL of water in each wound. The fruit was then placed in an airtight container, a range of AITC volumes were disposed onto a Whatman filter paper disc, the disc was suspended in front of a battery-powered fan, and the container closed for 18 hours. The mandarins were then left at ambient temperature and high humidity for 6 days. The test groups were mandarins that were infected and untreated, and infected and treated with 62.5 μL, 125 μL, 250 μL, and 500 μL on the filter paper disc. […] FIG. 6 is a bar graph showing incidence (% infected) for the test groups.
Example 5. The antifungal activity of a range of AITC vapor exposure times was tested to determine the effects against Pd in mandarins. All samples were wounded by puncturing with a screw. Mandarins were infected by dispensing 1000 Pd spores suspended in 10 μL of water in the wound. The fruit was then placed in an airtight container, 125 μL of AITC was dispensed onto a Whatman filter paper disc, the disc suspended in front of a battery-powered fan, and the container closed for 15 minutes to 2 hours. The test groups were then left at ambient temperature, high humidity, and assessed for Pd mold after 6 days. The test groups consisted of mandarins that were: uninfected and untreated; infected and untreated; infected and treated with 0.5 g/L imazalil; infected, treated with 125 μL of AITC on the filter paper, and exposed to the vapor for 15 minutes, 30 minutes, 1 hour, and 2 hours.

[2] = system: grapes; assay: Visible appearance of vapor-treated grapes
Protocol: (§1) Example 12. The antifungal activity of AITC and DADS vapor against Botrytis cinerea (Bc) in grapes was tested. All samples were wounded by making a 3 mm deep puncture in the skin. Samples were infected by dispensing 1000 Bc spores suspended in 10 μL of water in the wound. The test groups consisted of grapes that were: uninfected and untreated; infected and untreated; exposed to the vapor of 3 mL of AITC in a Petri dish for 72 hours; and exposed to the vapor of 3 mL of DADS in a Petri dish for 72 hours. FIG. 17 quantifies the infection results. […] Both AITC and DADS vapor were effective at controlling Bc mold. Treatment with AITC can potentially lead to changes in color or flavor of the grapes.

[3] = system: Botrytis cinerea (Bc); assay: Antifungal activity of vapor against Botrytis cinerea in grapes; details: vapor of 3 mL in a Petri dish for 72 hours
Protocol: as §1

[4] = system: Colletotrichum gloeosporioides (Cg); assay: Antifungal activity of vapor against Colletotrichum gloeosporioides in avocados
Protocol: Example 7. The antifungal activity of AITC and DADS vapor against Colletotrichum gloeosporioides (Cg) was tested in avocados. All test pieces were wounded by removing the stem and infected by dispensing 1000 Cg spores suspended in 10 μL of water into the wound. The test groups consisted of avocados that were: untreated and uninfected; untreated and infected; treated by dipping in a solution of 0.1 g/L of prochloraz; exposed to the vapor of 3 mL of AITC disposed in a Petri dish; and exposed to the vapor of 3 mL of DADS disposed in a Petri dish. FIG. 9 quantifies the infection results. AITC vapor reduced the incidence of Cg mold by 97% compared to the untreated test group and 70% compared to the prochloraz treated test group. DADS vapor reduced the incidence of Cg mold by 60% compared to the untreated test group.
Example 8. The antifungal activity of a range of DADS vapor exposure times was tested against Cg in avocados. All test pieces were wounded by removing the stem and infected by dispensing 1000 Cg spores suspended in 10 μL of water into the wound. The test groups consisted of avocados that were: infected and untreated; and exposed to the vapor of 3 mL of DADS in a Petri dish for 24 hours, 48 hours, and 72 hours. FIG. 10 quantifies the infection results. Test group exposed to DADS vapor at all exposure times reduced the incidence of Cg mold compared to the untreated test group. A 24 hour DADS exposure reduced the incidence of Cg mold by 8%. A 48 hour DADS exposure reduced the incidence of Cg mold by 25%. A 72 hour DADS exposure reduced the incidence of Cg mold by 57%.
Example 9. The antifungal activity of a range of AITC and carvacrol vapor exposure times was tested against Cg in avocados. To measure the effect of the various treatments on ripening, durometer shore was taken after 7 days of incubation at ambient temperature and high humidity. All samples were wounded by removing the stem and infected by dispensing 1000 Cg spores suspended in 10 μL of water in the wound. The test groups consisted of avocados that were: infected and left untreated on the benchtop; infected and left untreated under a fume hood; exposed to the vapor of 3 mL of AITC in a Petri dish for 24 hours, 48 hours, and 72 hours; and exposed to the vapor of 3 mL of carvacrol in a Petri dish for 72 hours. FIG. 11 quantifies the infection results. […] All exposure times to AITC vapor reduced the incidence of Cg mold compared to the untreated samples. A 24 hour AITC exposure reduced the incidence of Cg mold by 90%. A 48 hour AITC exposure reduced the incidence of Cg mold by 97%. A 72 hour AITC exposure reduced the incidence of Cg mold by 83%. […]
Example 21. The antifungal activity of avocados exposed to AITC vapor and prochloraz was tested against Cg in avocados. To measure the effect of the various treatments on ripening, durometer shore was taken after 5 days of incubation at ambient temperature (about 20° C. to about 25° C.) and high humidity (about 88% relative humidity to about 93% relative humidity). All samples were wounded by removing the stem and infected by dispensing 1000 Cg spores suspended in 10 μL of water in the wound. Exposure to vapor was done by placing the avocados in an airtight container, dispensing AITC onto Whatman filter paper discs, suspending the discs in front of a battery-powered fan, closing the container and incubating the avocados for 30 minutes. After vapor exposure, the avocados were left at ambient temperature, high humidity, and assessed for Cg mold on day 5. Treatment groups consisted of avocados that were: exposed for 30 minutes to the vapor of 125 μL of AITC disposed on a filter paper disc; dipped in a solution of 0.1 g/L of prochloraz and placed to dry on a rack in front of a fan for 30 min; infected and left untreated; and uninfected and untreated. […] To prepare the 0.1 g/L of prochloraz, 10 mg of prochloraz was mixed with 10 mL of ethanol and 90 mL of water. […] A 24 hour AITC exposure reduced the incidence of Cg mold by 90%. […]

[5] = mandarins, 72 hours vapor of 3 mL in a Petri dish

C=CCN=C=S [AITC, allyl isothiocyanate]
inhibition of fungal growth ([1]; mandarins infected with Pd, 72 hours vapor of 3 mL in a Petri dish): approximately 100% | effect on Pd mold ([1]; mandarins, 125 μL on filter paper (730 ppm), 30 min exposure): greatly reduced severity of Pd mold infection | effect on Pd infection ([1]; mandarins, 125 μL on filter paper disc, airtight container with fan, 18 hours, then 6 days): substantially prevented the growth mold | effect on Pd mold ([1]; mandarins, 125 μL on filter paper, 15 minute exposure): little effect on Pd mold | effect on Pd mold ([1]; mandarins, 125 μL on filter paper, 1 hour exposure): greatly reduced severity and incidence of Pd mold | effect on Pd infection ([1]; mandarins, 250 μL on filter paper disc, airtight container with fan, 18 hours, then 6 days): substantially prevented the growth mold | effect on Pd infection / mold growth [1, 5]: substantially prevented | effect on Pd infection ([1]; mandarins, vapor of 500 μL in a Petri dish for 72 hours): substantially prevented Pd infections | visible appearance of treated fruit ([2]; in vivo): darkening of the fruit | effect on Bc mold [3]: substantially eliminated Bc mold | reduction of the incidence of Cg mold ([4]; 24 hour AITC exposure as printed): 90% | reduction of the incidence of Cg mold ([4]; Example 9, vapor of 3 mL in a Petri dish for 24 hours, 7 days of incubation): 90% | reduction of the incidence of Cg mold ([4]; Example 9, vapor of 3 mL in a Petri dish for 48 hours, 7 days of incubation): 97% | reduction of the incidence of Cg mold ([4]; Example 9, vapor of 3 mL in a Petri dish for 72 hours, 7 days of incubation): 83% | incidence of Cg mold ([4]; Example 21, 30 minutes vapor of 125 μL on filter paper disc, assessed on day 5): reduced the incidence of Cg mold compared to the untreated samples and the prochloraz treated sample | reduction of the incidence of Cg mold compared to the untreated test group ([4]; vapor of 3 mL in a Petri dish): 97% | reduction of the incidence of Cg mold compared to the prochloraz treated test group ([4]; vapor of 3 mL in a Petri dish, prochloraz 0.1 g/L dip): 70%

C=CCSSCC=C [DADS, diallyl disulfide]
effect on Pd infection / mold growth [1, 5]: substantially prevents Pd mold growth | reduction of the incidence of Pd mold compared to the untreated samples ([1]; mandarins, exposed for 72 hours to the vapor of 3 mL in a Petri dish): 85% | visible appearance of treated fruit ([2]; grapes, vapor of 3 mL in a Petri dish for 72 hours): appeared unchanged | effect on Bc mold [3]: substantially eliminated Bc mold | reduction of the incidence of Cg mold ([4]; Example 8, vapor of 3 mL in a Petri dish for 24 hours): 8% | reduction of the incidence of Cg mold ([4]; Example 8, vapor of 3 mL in a Petri dish for 48 hours): 25% | reduction of the incidence of Cg mold ([4]; Example 8, vapor of 3 mL in a Petri dish for 72 hours): 57% | reduction of the incidence of Cg mold compared to the untreated test group ([4]; vapor of 3 mL in a Petri dish): 60%
